{
  "source": "ChEMBL document CHEMBL5346873",
  "about": "“Strategic modification of low-activity natural antimicrobial peptides confers antibacterial potential in vitro and in vivo” (Eur J Med Chem, 2023)",
  "key": {"Escherichia coli [1]": {"system": "Escherichia coli", "test": "Synergistic antibacterial activity against Escherichia coli assessed as fractional inhibitory concentration in presence of doxycycline", "format": "functional"}, "Klebsiella aerogenes [2]": {"system": "Klebsiella aerogenes", "test": "Antibacterial activity against Enterobacter aerogenes assessed as fractional inhibitory concentration", "format": "functional"}, "Klebsiella aerogenes [3]": {"system": "Klebsiella aerogenes", "test": "Antibacterial activity against Enterobacter aerogenes assessed as doxycycline MIC", "format": "functional"}, "Klebsiella pneumoniae [4]": {"system": "Klebsiella pneumoniae", "test": "Additive antibacterial activity against Klebsiella pneumoniae expressing NDM1 assessed as fractional inhibitory concentration in presence of meropenem", "format": "functional"}, "Pseudomonas aeruginosa [5]": {"system": "Pseudomonas aeruginosa", "test": "Antibacterial activity against Pseudomonas aeruginosa assessed as fractional inhibitory concentration in presence of doxycycline", "format": "functional"}, "Vibrio vulnificus [6]": {"system": "Vibrio vulnificus", "test": "Bactericidal activity against Vibrio vulnificus 204 at MIC after 30 mins", "format": "functional", "conditions": "0.5 h"}, "Enterococcus faecalis": {"system": "Enterococcus faecalis", "test": "Antibacterial activity against Enterococcus faecalis incubated for 16 to 20 hrs", "format": "functional", "conditions": "time 16-20 hrs"}, "Escherichia coli [7]": {"system": "Escherichia coli", "test": "Synergistic antibacterial activity against Escherichia coli assessed as doxycycline MIC", "format": "functional"}, "Klebsiella aerogenes [8]": {"system": "Klebsiella aerogenes", "test": "Antibacterial activity against Enterobacter aerogenes in presence of doxycycline", "format": "functional"}, "Klebsiella pneumoniae [9]": {"system": "Klebsiella pneumoniae", "test": "Additive antibacterial activity against Klebsiella pneumoniae expressing NDM1 assessed as meropenem MIC", "format": "functional"}, "Klebsiella pneumoniae [10]": {"system": "Klebsiella pneumoniae", "test": "Additive antibacterial activity against Klebsiella pneumoniae expressing NDM1 in presence of meropenem", "format": "functional"}, "Pseudomonas aeruginosa [11]": {"system": "Pseudomonas aeruginosa", "test": "Antibacterial activity against Pseudomonas aeruginosa assessed as doxycycline MIC", "format": "functional"}, "Vibrio vulnificus [12]": {"system": "Vibrio vulnificus", "test": "Antibacterial activity against Vibrio vulnificus infected in BALB/c mouse wound infection model assessed as reduction in bacterial infection at 12.5 ug per animal administered 12 hrs post infection and measured for 14 days", "format": "functional, organism-based", "conditions": "dose 12.5 µg, time 14.0 day"}, "Pseudomonas aeruginosa [13]": {"system": "Pseudomonas aeruginosa", "test": "Antibacterial activity against Pseudomonas aeruginosa in presence of doxycycline", "format": "functional"}, "[14]": {"test": "Cytotoxicity against human HaCaT cells incubated for 24 hrs by MTS assay", "format": "toxicity, cell-based", "conditions": "read-out: LD50"}, "Vibrio vulnificus [15]": {"system": "Vibrio vulnificus", "test": "Antibacterial activity against Vibrio vulnificus infected in BALB/c mouse wound infection model assessed as reduction in wound infection rate at 12.5 ug per animal administered 12 hrs post infection and measured for 14 days", "format": "functional, organism-based", "conditions": "dose 12.5 µg, time 14.0 day"}, "Vibrio vulnificus [16]": {"system": "Vibrio vulnificus", "test": "Antibacterial activity against Vibrio vulnificus infected in BALB/c mouse wound infection model assessed as survival at 12.5 ug per animal administered 12 hrs post infection and measured for 14 days", "format": "functional", "conditions": "dose 12.5 µg; time 14 day"}, "Escherichia coli [17]": {"system": "Escherichia coli", "test": "Synergistic antibacterial activity against Escherichia coli in presence of doxycycline", "format": "functional"}, "Escherichia coli [18]": {"system": "Escherichia coli", "test": "Additive antibacterial activity against Escherichia coli in presence of doxycycline by checkerboard microtiter plate assay", "format": "functional"}, "Klebsiella pneumoniae [19]": {"system": "Klebsiella pneumoniae", "test": "Synergistic antibacterial activity against Klebsiella pneumoniae expressing NDM1 in presence of meropenem by checkerboard microtiter plate assay", "format": "functional"}, "Klebsiella aerogenes [20]": {"system": "Klebsiella aerogenes", "test": "Additive antibacterial activity against Enterobacter aerogenes in presence of doxycycline by checkerboard microtiter plate assay", "format": "functional"}, "Klebsiella aerogenes [21]": {"system": "Klebsiella aerogenes", "test": "Additive antibacterial activity against Enterobacter aerogenes assessed as fractional inhibitory concentration in presence of doxycycline by checkerboard microtiter plate assay", "format": "functional"}, "Klebsiella aerogenes [22]": {"system": "Klebsiella aerogenes", "test": "Additive antibacterial activity against Enterobacter aerogenes assessed as doxycycline MIC by checkerboard microtiter plate assay", "format": "functional"}, "Escherichia coli [23]": {"system": "Escherichia coli", "test": "Additive antibacterial activity against Escherichia coli assessed as fractional inhibitory concentration in presence of doxycycline by checkerboard microtiter plate assay", "format": "functional"}, "Vibrio vulnificus [24]": {"system": "Vibrio vulnificus", "test": "Bactericidal activity against Vibrio vulnificus 204 at MIC after 5 mins", "format": "functional, organism-based"}, "Klebsiella pneumoniae [25]": {"system": "Klebsiella pneumoniae", "test": "Synergistic antibacterial activity against Klebsiella pneumoniae expressing NDM1 assessed as fractional inhibitory concentration in presence of meropenem by checkerboard microtiter plate assay", "format": "functional"}, "Escherichia coli [26]": {"system": "Escherichia coli", "test": "Additive antibacterial activity against Escherichia coli assessed as doxycycline MIC by checkerboard microtiter plate assay", "format": "functional"}, "Vibrio vulnificus [27]": {"system": "Vibrio vulnificus", "test": "Antibacterial activity against Vibrio vulnificus infected in BALB/c mouse wound infection model assessed as reduction in bacterial infection at 6.25 ug per animal administered 12 hrs post infection and measured for 14 days", "format": "functional, organism-based", "conditions": "dose 6.25 µg, time 14.0 day"}, "Klebsiella pneumoniae [28]": {"system": "Klebsiella pneumoniae", "test": "Synergistic antibacterial activity against Klebsiella pneumoniae expressing NDM1 assessed as meropenem MIC by checkerboard microtiter plate assay", "format": "functional"}, "Streptococcus iniae": {"system": "Streptococcus iniae", "test": "Antibacterial activity against Streptococcus iniae in presence of human serum", "format": "functional, organism-based"}, "Vibrio vulnificus [29]": {"system": "Vibrio vulnificus", "test": "Antibacterial activity against Vibrio vulnificus infected in BALB/c mouse wound infection model assessed as survival at 6.25 ug per animal administered 12 hrs post infection and measured for 14 days", "format": "functional", "conditions": "dose 6.25 µg; time 14 day"}, "Pseudomonas aeruginosa [30]": {"system": "Pseudomonas aeruginosa", "test": "Additive antibacterial activity against Pseudomonas aeruginosa in presence of doxycycline by checkerboard microtiter plate assay", "format": "functional"}, "Pseudomonas aeruginosa [31]": {"system": "Pseudomonas aeruginosa", "test": "Additive antibacterial activity against Pseudomonas aeruginosa assessed as doxycycline MIC by checkerboard microtiter plate assay", "format": "functional"}, "Pseudomonas aeruginosa [32]": {"system": "Pseudomonas aeruginosa", "test": "Additive antibacterial activity against Pseudomonas aeruginosa assessed as fractional inhibitory concentration in presence of doxycycline by checkerboard microtiter plate assay", "format": "functional"}, "Vibrio vulnificus [33]": {"system": "Vibrio vulnificus", "test": "Antibacterial activity against Vibrio vulnificus infected in BALB/c mouse wound infection model assessed as reduction in wound infection rate at 6.25 ug per animal administered 12 hrs post infection and measured for 14 days", "format": "functional, organism-based", "conditions": "dose 6.25 µg, time 14.0 day"}},
  "note": "Activity calls are given as the source filed them. The rule behind the calls is not given here.",
  "data": [
    {"substance": "H-KKCIAKAILKKAKKLLKKLVNP-OH", "values": [
      {"measurement": "FIC", "setting": "Escherichia coli [1]", "value": 0.5},
      {"measurement": "FIC", "setting": "Klebsiella aerogenes [2]", "value": 1.03},
      {"measurement": "MIC", "setting": "Klebsiella aerogenes [3]", "value": 0.048, "unit": "µg/mL"},
      {"measurement": "FIC", "setting": "Klebsiella pneumoniae [4]", "value": 0.51},
      {"measurement": "FIC", "setting": "Pseudomonas aeruginosa [5]", "value": 1.12},
      {"measurement": "Activity", "setting": "Vibrio vulnificus [6]", "value": 100, "unit": "%"},
      {"measurement": "MIC", "setting": "Enterococcus faecalis", "value": 25, "unit": "µg/mL"},
      {"measurement": "MIC", "setting": "Escherichia coli [7]", "value": 0.195, "unit": "µg/mL"},
      {"measurement": "MIC", "setting": "Klebsiella aerogenes [8]", "value": 6.25, "unit": "µg/mL"},
      {"measurement": "MIC", "setting": "Klebsiella pneumoniae [9]", "value": 3.12, "unit": "µg/mL"},
      {"measurement": "MIC", "setting": "Klebsiella pneumoniae [10]", "value": 12.5, "unit": "µg/mL"},
      {"measurement": "MIC", "setting": "Pseudomonas aeruginosa [11]", "value": 1.56, "unit": "µg/mL"},
      {"measurement": "Activity", "setting": "Vibrio vulnificus [12]", "value": "Active"},
      {"measurement": "MIC", "setting": "Pseudomonas aeruginosa [13]", "value": 25, "unit": "µg/mL"},
      {"measurement": "CC50 at 24 h", "setting": "[14]", "value": "> 100", "unit": "µg/mL"},
      {"measurement": "Activity", "setting": "Vibrio vulnificus [15]", "value": "inactive"},
      {"measurement": "Activity", "setting": "Vibrio vulnificus [16]", "value": 80, "unit": "%"},
      {"measurement": "MIC", "setting": "Escherichia coli [17]", "value": 6.25, "unit": "µg/mL"}
    ]},
    {"substance": "H-FKWKSVLKGVKGFVKGYF-OH", "values": [
      {"measurement": "MIC", "setting": "Escherichia coli [18]", "value": 3.12, "unit": "µg/mL"},
      {"measurement": "MIC", "setting": "Klebsiella pneumoniae [19]", "value": 6.25, "unit": "µg/mL"},
      {"measurement": "MIC", "setting": "Klebsiella aerogenes [20]", "value": 6.25, "unit": "µg/mL"},
      {"measurement": "FIC", "setting": "Klebsiella aerogenes [21]", "value": 1},
      {"measurement": "MIC", "setting": "Klebsiella aerogenes [22]", "value": 0.78, "unit": "µg/mL"},
      {"measurement": "FIC", "setting": "Escherichia coli [23]", "value": 0.53},
      {"measurement": "Activity", "setting": "Vibrio vulnificus [24]", "value": "Active"},
      {"measurement": "FIC", "setting": "Klebsiella pneumoniae [25]", "value": 0.26},
      {"measurement": "MIC", "setting": "Enterococcus faecalis", "value": 50, "unit": "µg/mL"},
      {"measurement": "MIC", "setting": "Escherichia coli [26]", "value": 0.024, "unit": "µg/mL"},
      {"measurement": "Activity", "setting": "Vibrio vulnificus [27]", "value": "Active"},
      {"measurement": "MIC", "setting": "Klebsiella pneumoniae [28]", "value": 3.12, "unit": "µg/mL"},
      {"measurement": "Activity", "setting": "Streptococcus iniae", "value": "Active"},
      {"measurement": "Activity", "setting": "Vibrio vulnificus [29]", "value": 20, "unit": "%"},
      {"measurement": "MIC", "setting": "Pseudomonas aeruginosa [30]", "value": 12.5, "unit": "µg/mL"},
      {"measurement": "MIC", "setting": "Pseudomonas aeruginosa [31]", "value": 6.25, "unit": "µg/mL"},
      {"measurement": "FIC", "setting": "Pseudomonas aeruginosa [32]", "value": 1},
      {"measurement": "CC50 at 24 h", "setting": "[14]", "value": "> 100", "unit": "µg/mL"},
      {"measurement": "Activity", "setting": "Vibrio vulnificus [33]", "value": "inactive"}
    ]}
  ]
}
